Experimental data as given in US10632144B2, “Low polydispersity, low molecular weight biotechnological chondroitin sulfate with anti-inflammatory and antiarthritis activity and use thereof in the prevention of osteoarthritis” (Gnosis S.p.A., priority 2012, dated 2020).

What was measured:
[1] = tested on: Sprague-Dawley rats; test: Acute toxicity after oral administration; assay type: in vivo; conditions: up to 2000 mg/kg body weight
Procedure: (§1) The CS according to the invention was also tested for its toxicological safety in animals and on cell cultures according to various protocols designed to assess its potential genotoxicity at cell level and acute oral toxicity in the rat. All the tests used were validated and conducted according to OECD guidelines for pharmaceutical products.
Finally, acute toxicity after oral administration was examined in Sprague-Dawley rats up to the dose of 2000 mg/kg of body weight.

[2] = tested on: interleukin-6 (IL-6); test: AA rat model, biotech vs animal LMW-CS: IL-6 plasma levels; assay type: in vivo, male Lewis rats
Procedure: (§2) As described in Example 5, commercial (high-molecular-weight) chondroitin sulfate material was subjected to depolymerization according to Cho, under controlled condition, until the desired mean MW was reached.
(§3) The product of Example 5 was tested in vivo vs. biotechnological chondroitin of the invention obtained as described in Ex. 4 (equivalent to the product obtained from any of the Examples 1, 2 or 3).
(§4) Two key parameters were analyzed to determine the efficacy of the treatment in reducing the inflammation related to osteoarthritis: C reactive protein (CRP) and interleukin-6 (IL-6) plasma levels. […] CRP is another important marker for systemic inflammation, its plasmatic level rises up during arthritis progression. AA was induced in male Lewis rats with a single intradermal injection of heat-inactivated Mycobacterium butyricum in […] Freund's adjuvant. The following anti-osteoarthritic treatment consisted in daily oral (900 mg/kg b.w.) administrations of LMW-CS starting from day 0, i.e. the day of bacterial inoculation.

[3] = tested on: rats with Adjuvant Arthritis (AA); test: Adjuvant arthritis (AA) in rats: hind paw oedema; assay type: in vivo, male Lewis rats
Procedure: (§5) AA was induced by a single intradermal injection of Mycobacterium butyricum in […] Freund's adjuvant. The study involved one group of healthy animals (HC), one group of untreated arthritic animals (AC) and two groups of arthritic animals treated with two different regimens. The first treatment regimen involved pre-treatment consisting of administration of 900 mg/kg of biotechnological CS a day for 14 days before arthritis was induced, continuing for 28 days after the induction of AA (PT). The second treatment regimen involved the administration of 900 mg/kg of biotechnological CS a day only during the 28 days after induction of AA (T).
(§6) 40 male Lewis rats weighing between 150 and 190 g were divided at random into four groups of 10 animals each, housed in polypropylene cages in an environment maintained at the temperature of 22±2° C., and fed on a standard laboratory diet with unlimited access to water.
(§7) The experimental groups were as follows:
(§8) 3) A group of arthritic rats orally treated with biotechnological CS at the dose of 900 mg/day per kg of body weight for 28 days after induction of AA (days 0-28 of the experiment) (T).
(§9) 4) A group orally pre-treated with biotechnological CS at the dose of 900 mg/day per kg of body weight for 14 days preceding the induction of AA, and for the 28 days after induction of AA (days −14 to 28 of the experiment) (PT).
(§10) The CS of the invention was dissolved in distilled water at the concentration of 20 mg/ml and administered orally as a single daily dose by gavage.
The oedema that developed as a consequence of arthritis was measured by observing the increase in volume of the hind paw with a caliper suitable for the measurement. The measurements were performed before the induction of AA (day 0) and on days 7, 14, 21 and 28 of the study.
The data were expressed as the percentage increase in oedema calculated with the following formula: [(Dayn/Day0)×100]−100, Day0 being the measurement on the initial day and Dayn the measurement on the day considered.

[4] = tested on: auxotrophic strains of Salmonella typhimurium; test: Bacterial reverse mutation test (OECD 471); assay type: cell-based
Procedure: as §1
(§11) The biotechnological CS was subjected to mutagenesis tests in bacterial cells (bacterial reverse mutation, Ref. OECD 471) which tested the ability of the product to induce the appearance of reverse mutants in auxotrophic strains of E. coli and Salmonella typhimurium.

[5] = tested on: auxotrophic strains of E. coli; test: Bacterial reverse mutation test (OECD 471); assay type: cell-based
Procedure: as §1, §11

[6] = tested on: C reactive protein (CRP); test: AA rat model, biotech vs animal LMW-CS: CRP plasma levels; assay type: in vivo, male Lewis rats
Procedure: as §2, §3, §4

[7] = tested on: rats with Adjuvant Arthritis (AA); test: Adjuvant arthritis (AA) in rats: arthritis score; assay type: in vivo, male Lewis rats; design: key to Arthritis score: sum of oedema (1-8), forepaw diameter (1-5), scab diameter (1-5) scores
Procedure: as §5, §6, §7, §8, §9, §10
The arthritis score was evaluated by allocating a score to the observation of paw joint swelling (oedema), the extent of periarticular erythema and the diameter of the scab at the adjuvant injection site at the base of the tail. The arthritis score or arthrogram was measured as the sum total of oedema (in ml, score 1 to 8), plus the diameter of the forepaw (in mm, max score 1 to 5), plus the diameter of the scab at the site of application of Mycobacterium butyricum measured parallel to the spinal column (in mm, max score 1 to 5), for each animal.

[8] = tested on: rats with Adjuvant Arthritis (AA); test: Adjuvant arthritis (AA) in rats: change in body weight; assay type: in vivo, male Lewis rats; conditions: for increase in body weight relative to that of the healthy controls: 900 mg/kg/day, end of the study
Procedure: as §5, §6, §7, §8, §9, §10
The body weight of the rats was measured before induction of AA (day 0), on days 7, 14 and 21, and at the end of the treatment (day 28). The effect of the treatment on this parameter was evaluated by comparing the weight increases of the different groups during the treatment period.

[9] = daily oral 900 mg/kg b.w. from day 0, day 14
[10] = daily oral 900 mg/kg b.w., 14 days of treatment
[11] = Pre-Treatment (PT): 900 mg/kg/day oral, days −14 to 28, day 0
[12] = Pre-Treatment (PT): 900 mg/kg/day oral, days −14 to 28, day 7
[13] = Pre-Treatment (PT): 900 mg/kg/day oral, days −14 to 28, day 14
[14] = Pre-Treatment (PT): 900 mg/kg/day oral, days −14 to 28, day 21
[15] = Pre-Treatment (PT): 900 mg/kg/day oral, days −14 to 28, day 28
[16] = Treatment (T): 900 mg/kg/day oral, days 0-28, day 0
[17] = Treatment (T): 900 mg/kg/day oral, days 0-28, day 7
[18] = Treatment (T): 900 mg/kg/day oral, days 0-28, day 14
[19] = Treatment (T): 900 mg/kg/day oral, days 0-28, day 21
[20] = Treatment (T): 900 mg/kg/day oral, days 0-28, day 28

Low-molecular-weight chondroitin sulfate sodium salt [LMW-CS]
clinical signs ([1]; 14 days observation): did not show any clinical signs of suffering
mortality ([1]; 14 days observation): no mortality occurred
autopsy of tissues and organs ([1]; end of the study): did not indicate any signs of toxicity
IL-6 plasma levels [2, 9]: 233.9 pg/mL
effect of treatment on IL-6 plasma levels [2, 10]: decreased
Change in hind paw swelling: [(Dayn/Day0) × 100] − 100 [3, 11]: 0.0%
Change in hind paw swelling: [(Dayn/Day0) × 100] − 100 [3, 12]: 15.4%
Change in hind paw swelling: [(Dayn/Day0) × 100] − 100 [3, 13]: 26.7%
Change in hind paw swelling: [(Dayn/Day0) × 100] − 100 [3, 14]: 46.5%
Change in hind paw swelling: [(Dayn/Day0) × 100] − 100 [3, 15]: 49.7%
oedema developed in the hind paw vs untreated controls ([3]; Pre-treated animals (PT), 900 mg/kg/day): significantly reduced
Change in hind paw swelling: [(Dayn/Day0) × 100] − 100 [3, 16]: 0.0%
Change in hind paw swelling: [(Dayn/Day0) × 100] − 100 [3, 17]: 13.1%
Change in hind paw swelling: [(Dayn/Day0) × 100] − 100 [3, 18]: 34.5%
Change in hind paw swelling: [(Dayn/Day0) × 100] − 100 [3, 19]: 62.8%
Change in hind paw swelling: [(Dayn/Day0) × 100] − 100 [3, 20]: 61.4%
bacterial mutagenicity (reverse mutants) [4]: No significant increase
bacterial mutagenicity (reverse mutants) [5]: No significant increase
CRP plasma levels [6, 9]: 548.8 µg/mL
effect of treatment on CRP plasma levels [6, 10]: decreased
Arthritis score [7, 11]: 10.0
Arthritis score [7, 12]: 10.1
Arthritis score [7, 13]: 13.1
Arthritis score [7, 14]: 15.8
Arthritis score ([7]; Pre-Treatment (PT): 900 mg/kg/day oral, days −14 to 28, day 28, listed as biotechnological CS, sulfate sodium salt): 19
Arthritis score ([7]; Pre-Treatment (PT): 900 mg/kg/day oral, days −14 to 28, day 28, sulfate sodium salt): 19.0
Arthritis score [7, 16]: 10.0
Arthritis score [7, 17]: 10.0
Arthritis score [7, 18]: 18.1
Arthritis score [7, 19]: 22.7
Arthritis score [7, 20]: 23.0
influence on arthritis score during the study period ([7]; Treatment-only (T) group, 900 mg/kg/day): did not significantly influence
Change in body weight: Δ(dayn − day0) [8, 11]: 0.0 g
Change in body weight: Δ(dayn − day0) [8, 12]: 92.96 g
Change in body weight: Δ(dayn − day0) [8, 13]: 107.26 g
Change in body weight: Δ(dayn − day0) [8, 14]: 93.39 g
Change in body weight: Δ(dayn − day0) [8, 15]: 108.63 g
increase in body weight relative to that of the healthy controls ([8]; Pre-treatment (PT)): 73%
Change in body weight: Δ(dayn − day0) [8, 16]: 0.0 g
Change in body weight: Δ(dayn − day0) [8, 17]: 85.19 g
Change in body weight: Δ(dayn − day0) [8, 18]: 89.19 g
Change in body weight: Δ(dayn − day0) [8, 19]: 68.39 g
Change in body weight: Δ(dayn − day0) [8, 20]: 79.78 g
increase in body weight relative to that of the healthy controls ([8]; Treatment alone (T)): 54%
